Patent publication US20070202206A1, “Morinda Citrifolia Leaf Juice And Leaf Extract Based Formulations” (priority 2005, published 2007)

Tests used:
[1] = tested on: human epidermoid carcinoma cell line-A431; test: cells; type: cell-based; conditions: for Percent Grown: A431, 72-hour exposure
Experimental: In this example, assays were performed to detect changes in cell proliferation based on the ability of viable cells to cause alamarBlue to change from non-fluorescent blue to a reduced, fluorescent red form. With the results obtained from the alamarBlue reaction, cell proliferation can be quantified and metabolic activity of viable cells can be examined. Test compounds including Morinda citrifolia leaf extract, leaf juice, and roast leaf were tested for their effects on […]
Morinda citrifolia leaf extract, leaf juice, and roast leaf were provided by Tahitian Noni International, Inc. for in vitro anti-tumor studies. The Morinda citrifolia compounds were dissolved in sterile distilled water and then diluted with sterile distilled water to obtain initial working solutions of 10000, 1000, 100, 10, and 1 μg/ml for the leaf extract and roast leaf, as well as 100, 10, 1, 0.1 and 0.01% for the leaf juice.
The tumor cell line, A431 (human epidermoid carcinoma), obtained from American Type Culture Collection (ATCC CRL-1555), was incubated in an air atmosphere of 5% CO2 at 37° C. The culture medium was used with Dulbecco's Modified Eagle's medium, 90%; Fetal Bovine Serum, 10% and supplemented with 1% Antibiotic-Antimycotic.
The anti-proliferation for the test substances was evaluated. Aliquots of 100 μl of cell suspension (about 3×10^3/well) were placed in 96-well microtiter plates in an atmosphere of 5% CO2 at 37° C. […] At the end of incubation, 20 μl of 90% alamarBlue reagent was added to each well for another 6-hour incubation before detection of cell viability by fluorescent intensity. Fluorescent intensity was measured using a Spectrafluor Plus plate reader with excitation at 530 nm and demission at 590 nm.
IC50, TGI, and LC50 values were then determined. […] TGI (Total Growth Inhibition) is the test compound concentration where the number or mass of treated cells at the end of the experiment was equal to that at time0. […] The measured results were calculated by the following formula: PG(%)=100×(Mean Ftest−Mean Ftime0)/(Mean Fctrl−Mean Ftime0)
If (Mean Ftest−Mean Ftime0)<0, then PG(%)−100×(Mean Ftest−Mean Ftime0)/(Mean Ftime0−Mean Fblank)
Where: • PG=percent growth • Mean Ftime0=The average of 2 measured fluorescent intensities of reduced alamarBlue at the time just before exposure of cells to the test substance. • Mean Ftest=The average of 2 measured fluorescent intensities of alamarBlue after 72-hour exposure of cells to the test substance. • Mean Fctrl, =The average of 2 measured fluorescent intensities of alamarBlue after 72-hour incubation without the test substance. • Mean Fblank=The average of 2 measured fluorescent intensities of alamarBlue in medium without cells after 72-hour incubation.
A decrease of 50% or more (≧50%) in fluorescent intensity relative to the vehicle-treated control indicated significant cell growth inhibition, cytostatic or cytotoxic activity, and a semi-quantitative IC50, TGI, and LC50 were then determined by nonlinear regression using GraphPad Prism (GraphPad Software, USA).

[2] = tested on: Propionibacterium acnes (ATCC 6919); test: Microbial in vitro assay, Propionibacterium acnes; type: cell-based; conditions: Microbial In Vitro Assays, Anaerobes

Compound: CO[C@@]12[C@H](COC(N)=O)C3=C(C(=O)C(C)=C(N)C3=O)N1C[C@@H]1N[C@@H]12 [Mitomycin]
- Percent Grown ([1]; concentration 0.001 μM): 101%
- Percent Grown ([1]; concentration 0.01 μM): 82%
- Percent Grown ([1]; concentration 0.1 μM): 7%
- Percent Grown ([1]; concentration 1 μM): 35%
- Percent Grown ([1]; concentration 10 μM): 97%
- IC50 ([1]; Homo sapiens, A-431, Tumor, Skin (A431), semi-quantitative, nonlinear regression, read-out: IC50 (50% Inhibition Concentration)): 35 nM
- TGI (Total Growth Inhibition) ([1]; Tumor, Skin (A431), semi-quantitative, nonlinear regression): 0.19 µM

Compound: CC1(C)S[C@@H]2[C@H](NC(=O)[C@H](N)c3ccccc3)C(=O)N2[C@H]1C(=O)O [Ampicillin]
- Reference Compound Data, Concurrent [2]: 0.1 µg/mL
